Experimental data taken from patent US10077288B2, “Hydroxystatin derivatives for the treatment of arthrosis” (Merck Patent GmbH, priority 2012, dated 2018).
*1 amine or outer side, *2 acyl side, *3 side chain or, on linkers, in order; H or OH if unused. Where a SMILES comes first, the peptide text is derived from it. [ ]: non-standard residue; d: D form. The star is where a group is joined. Ahppa(3S,4S) = O=C(C[C@H](O)[C@H](Cc1ccccc1)N[*:1])[*:2]; PhAc = O=C(Cc1ccccc1)*

Target: T1, cathepsin D isolated from the human liver (Homo sapiens, UniProt P07339)
T1 construct: cathepsin D isolated from the human liver (Sigma-Aldrich); purchased Sigma-Aldrich; host or cells: human liver (tissue-derived, not recombinant)
T1 sequence (P07339 65-161 limits assumed): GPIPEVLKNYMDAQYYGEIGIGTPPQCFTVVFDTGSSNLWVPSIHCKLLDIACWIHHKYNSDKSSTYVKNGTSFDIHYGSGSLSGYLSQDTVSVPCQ
T1 sequence (P07339 169-412 limits assumed): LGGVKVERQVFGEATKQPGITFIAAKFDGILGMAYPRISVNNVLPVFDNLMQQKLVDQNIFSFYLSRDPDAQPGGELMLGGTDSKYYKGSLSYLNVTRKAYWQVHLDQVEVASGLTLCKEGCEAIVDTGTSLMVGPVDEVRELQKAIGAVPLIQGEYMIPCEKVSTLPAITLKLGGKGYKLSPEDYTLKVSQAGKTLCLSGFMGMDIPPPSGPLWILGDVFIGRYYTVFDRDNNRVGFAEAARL
Assay: In-vitro fluorescence assay for identification of cathepsin D inhibitors
Format: biochemical
Conditions: human liver cathepsin D 1.4 nM, pH 5.5; read-out: CatD assay IC50-(M)
Method: EXAMPLE 4: IN-VITRO FLUORESCENCE ASSAY FOR IDENTIFICATION OF CATHEPSIN D INHIBITORS
In order to identify modulators of cathepsin D activity, a continuous enzymatic test was carried out with a synthetic peptide which carries a fluorescent group (MCA=(7-methoxycoumarin-4-yl)acetyl) which is quenched by energy transfer from a Dpn (2,4 dinitrophenyl) group on the same molecule, in Greiner 384-well nb microtitre plates. Cleavage of the peptidic substrate by cathepsin D causes an increase in the fluorescence intensity. In order to determine the efficacy of substances, the time-dependent increase in the fluorescence intensity in the presence of the substance was compared with the time-dependent increase in fluorescence in the absence of substances. The reference substance used was pepstatin A (Sigma-Aldrich). The substrate used was MCA-GKPILFFRLK(Dnp)d-R—NH2 (Enzo Life Sciences, Lörrach). The enzyme employed was cathepsin D isolated from the human liver (Sigma-Aldrich) in a final concentration of 1.4 nM. The test was carried out in 100 mM sodium acetate buffer, 1.25% (v/v) of DMSO, 0.25% (w/v) of Chaps, pH 5.5. 2 μl of each substance solution with serially diluted substance concentration were added to in each case 4 μl of cathepsin D solution and incubated at room temperature for 10 min. The reaction was started by addition of 2 μl of substrate solution (final concentration 5 μM). After carrying out a starting-point fluorescence measurement (excitation wavelength 340 nm/emission wavelength 450 nm) using an Envision multilabel reader (Perkin Elmer), the reaction was incubated at room temperature for 60 min. The amount of peptide fragment cleaved off during the reaction time was subsequently measured by determination of the increase in the fluorescence intensity at 450 nm (excitation wavelength 340 nm).

IC50 [M] | Compound
1e-07 | CC[C@H](C)[C@H](NC(=O)C[C@H](O)[C@H](Cc1ccccc1)NC(=O)[C@@H](NC(=O)COc1ccc(C)c(C)c1)C(C)C)C(=O)N[C@H](C(=O)O)C(C)C [Compound 29, (S)-2-[(2S,3S)-2-((3S,4S)-4-{(S)-2-[2-(3,4-dimethylphenoxy)acetylamino]-3-methylbutyrylamino}-3-hydroxy-5-phenylpentanoylamino)-3-methylpentanoylamino]-3-methylbutyric acid]
4.8e-07 | CC[C@H](C)[C@H](NC(=O)C[C@H](O)[C@H](Cc1ccccc1)NC(=O)[C@@H](NC(=O)Cc1cccc(OCCN)c1)[C@@H](C)CC)C(=O)N[C@H](C(=O)O)C(C)C [Compound 41, (S)-2-{(2S,3S)-2-[(3S,4S)-4-((S)-2-{2-[3-(2-aminoethoxy)phenyl]-acetylamino}-3-methyl-1-(S)-oxopentylamino)-3-hydroxy-5-phenylpentanoylamino]-3-methylpentanoylamino}-3-methylbutyric acid]
1.6e-07 | CC[C@H](C)[C@H](NC(=O)C[C@H](O)[C@H](Cc1ccccc1)NC(=O)[C@@H](NC(=O)c1cccc(-c2ccccc2)c1)C(C)C)C(=O)N[C@H](C(=O)O)C(C)C [Compound 31, (S)-2-[(2S,3S)-2-((3S,4S)-4-{(S)-2-[(biphenyl-3-carbonyl)amino]-3-methylbutyrylamino}-3-hydroxy-5-phenylpentanoylamino)-3-methylpentanoylamino]-3-methylbutyric acid]
2.5e-08 | CC[C@H](C)[C@H](NC(=O)C[C@H](O)[C@H](Cc1ccccc1)NC(=O)[C@@H](NC(=O)Cc1cccc(OC)c1)C(C)C)C(=O)N[C@H](C(=O)OCc1ccccc1)C(C)C [Compound 13, benzly (S)-2-[(2S,3S)-2-((3S,4S)-3-hydroxy-4-{(S)-2-[2-(3-methoxy-phenyl)acetylamino]-3-methylbutyrylamino}-5-phenylpentanoylamino)-3-methylpentanoylamino]-3-methylbutyrate]
4.3e-08 | CCOc1cccc(CC(=O)N[C@H](C(=O)N[C@@H](Cc2ccccc2)[C@@H](O)CC(=O)N[C@H](C(=O)N[C@H](C(=O)O)C(C)C)[C@@H](C)CC)[C@@H](C)CC)c1 [Compound 36, (S)-2-[(2S,3S)-2-((3S,4S)-3-hydroxy-4-{(S)-methyl-1-(S)-2-[2-(3-ethoxyphenyl)acetylamino]-3-oxopentylamino}-5-phenylpentanoylamino)-3-methylpentanoylamino]-3-methylbutyric acid]
3.5e-10 | CC[C@H](C)[C@H](NC(=O)C[C@H](O)[C@H](Cc1ccccc1)NC(=O)[C@@H](NC(=O)[C@H](CC(C)C)NC(=O)Cc1ccccc1)C(C)C)C(=O)N[C@H](C(=O)O)C(C)C [Compound 45, (S)-2-((2S,3S)-2-{(3S,4S)-3-hydroxy-4-[(S)-3-methyl-2-((S)-4-methyl-2-phenylacetylaminopentanoylamino)butyrylamino]-5-phenylpentanoylamino}-3-methylpentanoylamino)-3-methylbutyric acid] (PhAc-LV[Ahppa(3S,4S)]IV-OH)
1.7e-08 | CCCOc1cccc(CC(=O)N[C@H](C(=O)N[C@@H](Cc2ccccc2)[C@@H](O)CC(=O)N[C@H](C(=O)N[C@H](C(=O)O)C(C)C)[C@@H](C)CC)[C@@H](C)CC)c1 [Compound 40, (S)-2-[(2S,3S)-2-((3S,4S)-3-hydroxy-4-{(2S,3S)-3-methyl-2-[2-(3-propoxyphenyl)acetylamino]pentanoylamino}-5-phenylpentanoylamino)-3-methylpentanoylamino]-3-methylbutyric acid]
3.4e-08 | CC[C@H](C)[C@H](NC(=O)C[C@H](O)[C@H](Cc1ccccc1)NC(=O)[C@@H](NC(=O)Cc1cc(OC(F)(F)F)ccc1OC)C(C)C)C(=O)N[C@H](C(=O)OCc1ccccc1)C(C)C [Compound 18, benzly (S)-2-[(2S,3S)-2-((3S,4S)-3-hydroxy-4-{(S)-2-[2-(2-methoxy-5-trifluoromethoxyphenyl)acetylamino]-3-methylbutyrylamino}-5-phenylpentanoylamino)-3-methylpentanoylamino]-3-methylbutyrate]
1.1e-08 | CC[C@H](C)[C@H](NC(=O)C[C@H](O)[C@H](Cc1ccccc1)NC(=O)[C@@H](NC(=O)Cc1cc(OC(F)(F)F)ccc1OC)C(C)C)C(=O)N[C@H](C(=O)O)C(C)C [Compound 24, (S)-2-[(2S,3S)-2-((3S,4S)-3-hydroxy-4-{(S)-2-[2-(2-methoxy-5-trifluoromethoxyphenyl)acetylamino]-3-methylbutyrylamino}-5-phenylpentanoylamino)-3-methylpentanoylamino]-3-methylbutyric acid]
2.6e-10 | CCC[C@H](NC(=O)C[C@H](O)[C@H](Cc1ccccc1)NC(=O)[C@@H](NC(=O)[C@H](CC(C)C)NC(=O)CC(C)C)C(C)C)C(=O)NC(CC)CC [Compound 48, N—[(S)-1-(1-ethylpropylcarbamoyl)butyl]-(3S,4S)-3-hydroxy-4-{(S)-3-methyl-2-[(S)-4-methyl-2-(3-methylbutyrylamino)pentanoylamino]-butyrylamino}-5-phenylpentanamide]
8.1e-09 | CC[C@H](C)[C@H](NC(=O)C[C@H](O)[C@H](Cc1ccccc1)NC(=O)[C@@H](NC(=O)Cc1ccc2ccccc2c1)C(C)C)C(=O)N[C@H](C(=O)O)C(C)C [Compound 25, (S)-2-((2S,3S)-2-{(3S,4S)-3-hydroxy-4-[(S)-3-methyl-2-(2-naphthalen-2-ylacetylamino)butyrylamino]-5-phenylpentanoylamino}-3-methylpentanoylamino)-3-methylbutyric acid]
3.5e-07 | CC[C@H](C)[C@H](NC(=O)C[C@H](O)[C@H](Cc1ccccc1)NC(=O)[C@@H](NC(=O)COc1ccc2ccccc2c1)C(C)C)C(=O)N[C@H](C(=O)OCc1ccccc1)C(C)C [Compound 7]
2.3e-07 | CC[C@H](C)[C@H](NC(=O)C[C@H](O)[C@H](Cc1ccccc1)NC(=O)[C@@H](NC(=O)C(C)(C)Oc1ccc2ccccc2c1)C(C)C)C(=O)N[C@H](C(=O)O)C(C)C [Compound 6, (S)-2-[(2S,3S)-2-((3S,4S)-3-hydroxy-4-{(S)-3-methyl-2-[2-methyl-2-(naphthalen-2-yloxy)propionylamino]butyrylamino}-5-phenylpentanoylamino)-3-methylpentanoylamino]-3-methylbutyric acid]
1.2e-08 | CC[C@H](C)[C@H](NC(=O)C[C@H](O)[C@H](Cc1ccccc1)NC(=O)[C@@H](NC(=O)Cc1cccc(Oc2ccccc2)c1)C(C)C)C(=O)N[C@H](C(=O)O)C(C)C [Compound 27, (S)-2-[(2S,3S)-2-((3S,4S)-3-hydroxy-4-{(S)-3-methyl-2-[2-(3-phenoxyphenyl)acetylamino]butyrylamino}-5-phenylpentanoylamino)-3-methylpentanoylamino]-3-methylbutyric acid]
4e-08 | CC[C@H](C)[C@H](NC(=O)C[C@H](O)[C@H](Cc1ccccc1)NC(=O)[C@@H](NC(=O)Cc1cccc(Oc2ccccc2)c1)C(C)C)C(=O)N[C@H](C(=O)OCc1ccccc1)C(C)C [Compound 19, benzly (S)-2-[(2S,3S)-2-((3S,4S)-3-hydroxy-4-{(S)-3-methyl-2-[2-(3-phenoxyphenyl)acetylamino]butyrylamino}-5-phenylpentanoylamino)-3-methylpentanoylamino]-3-methylbutyrate]
1.6e-08 | CC[C@H](C)[C@H](NC(=O)C[C@H](O)[C@H](Cc1ccccc1)NC(=O)[C@@H](NC(=O)C(c1ccccc1)c1ccccc1)C(C)C)C(=O)N[C@H](C(=O)O)C(C)C [Compound 33, (S)-2-{(2S,3S)-2-[(3S,4S)-4-((S)-2-diphenylacetylamino-3-methyl-butyrylamino)-3-hydroxy-5-phenylpentanoylamino]-3-methylpentanoylamino}-3-methylbutyric acid]
1.5e-07 | CC[C@H](C)[C@H](NC(=O)C[C@H](O)[C@H](Cc1ccccc1)NC(=O)[C@@H](NC(=O)Cc1ccc(OC)c(OC)c1)C(C)C)C(=O)N[C@H](C(=O)O)C(C)C [Compound 14, (S)-2-[(2S,3S)-2-((3S,4S)-4-{(S)-2-[2-(3,4-dimethoxyphenyl)acetylamino]-3-methylbutyrylamino}-3-hydroxy-5-phenylpentanoylamino)-3-methylpentanoylamino]-3-methylbutyric acid]

Compound | IC50 [M]
CC[C@H](C)[C@H](NC(=O)C[C@H](O)[C@H](Cc1ccccc1)NC(=O)[C@@H](NC(=O)c1cccc(OC(C)(C)C)c1)C(C)C)C(=O)N[C@H](C(=O)O)C(C)C [Compound 26, (S)-2-((2S,3S)-2-{(3S,4S)-4-[(S)-2-(3-tert-butoxybenzoylamino)-3-methylbutyrylamino]-3-hydroxy-5-phenylpentanoylamino}-3-methylpentanoylamino)-3-methylbutyric acid] | 1.2e-07
